Assay results as given in PubChem BioAssay AID1918932 (Molecular Pharmacology Branch, DTP, NCI, 2023).
Several values for one entry are separate records, joined by “and”; a condition that tells them apart may be missing. Equal values may be shown once.

Tested on: 171881-019-R-J1-PDC complex spheroid viability
Assay: Anticancer human tumor 171881-019-R-J1-PDC patient-derived invasive breast carcinoma cell line growth inhibition
Conditions: for viability, T/C: stronger effect = lower value
From the text: Multicellular complex tumor spheroid response to LSD1 Inhibitor Iadademstat in combination with a variety of drugs and investigational agents in selected tumor cell lines
The current study was undertaken to assess response to LSD1 inhibitors in combination with standard-of-care drugs and investigational agents in solid tumor complex spheroid models as well as in the K-562 leukemia. Complex spheroids include a stromal component modeled by human endothelial cells (HUVEC) and fibroblasts modeled by human mesenchymal stem cells (MSCs). The concentration ranges selected for each drug and investigational agent were based upon clinically achievable concentrations if the clinical Cmax of the agent was known.
Compounds. The drugs and investigational agents used in this study are listed on Table 1. All of the agents used, including staurosporine (NSC755774) and gemcitabine (NSC613327), were obtained from the Developmental Therapeutics Program, NCI. FDA-approved anticancer drugs are available from the NCI at http://dtp.nci.nih.gov/branches/dscb/oncology_drugset_explanation.html. Drugs and investigational agents were >95% pure by proton nuclear magnetic resonance (NMR) and liquid chromatography/mass spectrometry (LC/MS). Stock solutions were prepared at 400x in DMSO, stored at -70 degrees C, and diluted in fresh medium prior to their use. The final concentration of DMSO in cell culture wells never exceeded 0.25% (v/v). The FDA-approved anticancer drug set is available from the Developmental Therapeutics Program at https://dtp.cancer.gov/organization/dscb/obtaining/available_plates.htm. All drugs and investigational agents were tested over a range starting from a high concentration at or near the clinical Cmax and decreasing in half-log increments. If the clinical Cmax for an agent had not been determined, the highest concentration tested was 10 microM.
Cell Lines. The patient-derived cancer cell (PDC) lines: 292921-168-R-J2-PDC, K24384-001-R-PDC, and 521955-158-R2-J5-PDC pancreatic carcinomas, 556581-035-R-J1 ovarian carcinoma, 324938-238-R-J1-PDC, 855422-203-R-J1-PDC and 883617-216-R-J1-PDC urothelial bladder carcinomas, 743489-274-T-PDC renal cell carcinoma, 138582-R-J1 Merkel cell tumor, K60290-347-R-J1 and K57222-313-R-J1-PDC glioblastomas, 653999-131-R-J2-PDC, LG0703-F948-PDC, and 349418-098-R-PDC non-small cell lung carcinomas, 885512-296-R-J2-PDC, 171881-019-R-J1-PDC breast carcinomas and 186277-243-T-J2-PDC and 233499-124-R-J2-PDC colon carcinomas were obtained from the NCI Patient-Derived Models Repository (PDMR, https://pdmr.cancer.gov). The established cell lines NCI/ADR-RES (RRID:CVCL_14520 and OVCAR-5 (RRID:CVCL_1628) ovarian carcinomas, 786-O (RRID:CVCL_1051) and A498 (RRID:CVCL_A498) renal cell carcinoma, NCI-H211 (ATCC, cat. CRL-5824; RRID:CVCL_1529), NCI-H196 (ATCC, cat. CRL-5823, RRID:CVCL_1509), SW 1271 (ATCC, cat. CRL-2177, RRID:CVCL_1716) and NCI-H1876 (ATCC, cat. CRL-5902, RRID:CVCL_1503) small cell lung carcinomas, MDA-MB-231 (RRID:CVCL_0062) and MDA-MB-468 (RRID:CVCL_0419)breast carcinomas (10-12). Pooled donor human umbilical vein endothelial cells (HUVEC, Lonza, cat. CC-2519) and human mesenchymal stem cells (hMSC, Lonza, cat. PT-2501) were purchased from Lonza (Walkersville, MD).
Cell Culture. All cells were maintained in an incubator at 37 degrees C and 5% CO2 with 95% humidity. The PDC lines were cultured according to standard operating procedures established by the NCI PDMR (https://pdmr.cancer.gov). Briefly all PDCs were thawed and cultured in Matrigel-coated flasks prepared with a working solution of 1X Ham's F-12 nutrient mix, without supplementation (Invitrogen, Waltham, MA, cat. 11765054), 100 U/mL penicillin-streptomycin (Invitrogen, cat. 15140122), and 2.5% Matrigel (Corning Inc., Corning, NY, cat. 354248) for the first three passages. […]

[1] = curve of first compound, second compound 0.1 µM
[2] = curve of first compound, second compound 0.316 µM
[3] = curve of first compound, second compound 1 µM
[4] = curve of first compound, second compound 3.16 µM
[5] = curve of first compound, second compound 10 µM
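Note: spheroids exposed to agents for 7 days after 3 days growth.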

SMILES: COc1cc(C2c3cc4c(cc3C(OC3OC5COC(C)OC5C(O)C3O)C3COC(=O)C23)OCO4)cc(OC)c1O (configuration not stated) + NC1CC1c1ccc(-c2cccc(O)c2)cc1
- IC50 [1]: 753 nM
- IC50 [2]: 1010 nM
- IC50 [3]: 793 nM
- IC50 [4]: 554 nM
- IC50 [5]: 406 nM
- viability, T/C (second compound 0.1 µM, first compound 0.00949 µM): 102%
- viability, T/C (second compound 0.1 µM, first compound 0.03 µM): 97%
- viability, T/C (second compound 0.1 µM, first compound 0.0949 µM): 74%
- viability, T/C (second compound 0.1 µM, first compound 0.3 µM): 64%
- viability, T/C (second compound 0.1 µM, first compound 0.949 µM): 48.3%
- viability, T/C (second compound 0.1 µM, first compound 3 µM): 29.2%
- viability, T/C (second compound 0.316 µM, first compound 0.00949 µM): 105%
- viability, T/C (second compound 0.316 µM, first compound 0.03 µM): 101%
- viability, T/C (second compound 0.316 µM, first compound 0.0949 µM): 80.8%
- viability, T/C (second compound 0.316 µM, first compound 0.3 µM): 69.6%
- viability, T/C (second compound 0.316 µM, first compound 0.949 µM): 51.4%
- viability, T/C (second compound 0.316 µM, first compound 3 µM): 33.3%
- viability, T/C (second compound 1 µM, first compound 0.00949 µM): 105%
- viability, T/C (second compound 1 µM, first compound 0.03 µM): 95.3%
- viability, T/C (second compound 1 µM, first compound 0.0949 µM): 84.9%
- viability, T/C (second compound 1 µM, first compound 0.3 µM): 66.4%
- viability, T/C (second compound 1 µM, first compound 0.949 µM): 46.9%
- viability, T/C (second compound 1 µM, first compound 3 µM): 28.1%
- viability, T/C (second compound 3.16 µM, first compound 0.00949 µM): 103%
- viability, T/C (second compound 3.16 µM, first compound 0.03 µM): 99.9%
- viability, T/C (second compound 3.16 µM, first compound 0.0949 µM): 78.7%
- viability, T/C (second compound 3.16 µM, first compound 0.3 µM): 59%
- viability, T/C (second compound 3.16 µM, first compound 0.949 µM): 43.6%
- viability, T/C (second compound 3.16 µM, first compound 3 µM): 27.9%
- viability, T/C (second compound 10 µM, first compound 0.00949 µM): 84.3%
- viability, T/C (second compound 10 µM, first compound 0.03 µM): 78.2%
- viability, T/C (second compound 10 µM, first compound 0.0949 µM): 69.1%
- viability, T/C (second compound 10 µM, first compound 0.3 µM): 51.3%
- viability, T/C (second compound 10 µM, first compound 0.949 µM): 41.4%
- viability, T/C (second compound 10 µM, first compound 3 µM): 27.4%

SMILES: COc1ccc([C@@H](O)c2cc(-c3ncnc4cc(N5CCOCC5)ccc34)c(F)cc2Cl)nn1 + NC1CCC(NC2CC2c2ccccc2)CC1
- IC50 [1]: 1210 nM
- IC50 [2]: 1150 nM
- IC50 [3]: 1060 nM
- IC50 [4]: 1040 nM
- IC50 [5]: 957 nM
- viability, T/C (second compound 0.1 µM, first compound 0.0316 µM): 94.6%
- viability, T/C (second compound 0.1 µM, first compound 0.1 µM): 107%
- viability, T/C (second compound 0.1 µM, first compound 0.316 µM): 106%
- viability, T/C (second compound 0.1 µM, first compound 1 µM): 58.3%
- viability, T/C (second compound 0.1 µM, first compound 3.16 µM): 11.3%
- viability, T/C (second compound 0.1 µM, first compound 10 µM): 6.63%
- viability, T/C (second compound 0.316 µM, first compound 0.0316 µM): 94.8%
- viability, T/C (second compound 0.316 µM, first compound 0.1 µM): 104%
- viability, T/C (second compound 0.316 µM, first compound 0.316 µM): 112%
- viability, T/C (second compound 0.316 µM, first compound 1 µM): 55.7%
- viability, T/C (second compound 0.316 µM, first compound 3.16 µM): 10.6%
- viability, T/C (second compound 0.316 µM, first compound 10 µM): 5.9%
- viability, T/C (second compound 1 µM, first compound 0.0316 µM): 86.7%
- viability, T/C (second compound 1 µM, first compound 0.1 µM): 101%
- viability, T/C (second compound 1 µM, first compound 0.316 µM): 109%
- viability, T/C (second compound 1 µM, first compound 1 µM): 52.3%
- viability, T/C (second compound 1 µM, first compound 3.16 µM): 10.4%
- viability, T/C (second compound 1 µM, first compound 10 µM): 5.85%
- viability, T/C (second compound 3.16 µM, first compound 0.0316 µM): 99.8%
- viability, T/C (second compound 3.16 µM, first compound 0.1 µM): 93.6%
- viability, T/C (second compound 3.16 µM, first compound 0.316 µM): 107%
- viability, T/C (second compound 3.16 µM, first compound 1 µM): 51.3%
- viability, T/C (second compound 3.16 µM, first compound 3.16 µM): 9.78%
- viability, T/C (second compound 3.16 µM, first compound 10 µM): 5.03%
- viability, T/C (second compound 10 µM, first compound 0.0316 µM): 103%
- viability, T/C (second compound 10 µM, first compound 0.1 µM): 115%
- viability, T/C (second compound 10 µM, first compound 0.316 µM): 108%
- viability, T/C (second compound 10 µM, first compound 1 µM): 47.6%
- viability, T/C (second compound 10 µM, first compound 3.16 µM): 7.96%
- viability, T/C (second compound 10 µM, first compound 10 µM): 3.23%

SMILES: CC1(C)CCC(CN2CCN(c3ccc(C(=O)NS(=O)(=O)c4ccc(NCC5CCOCC5)c([N+](=O)[O-])c4)c(Oc4cnc5[nH]ccc5c4)c3)CC2)=C(c2ccc(Cl)cc2)C1
- viability, T/C (compound 0.0316 µM): 93.7% and 93.8%
- viability, T/C (compound 0.1 µM): 87% and 96.2%
- viability, T/C (compound 0.316 µM): 93% and 86.7%
- viability, T/C (compound 1 µM): 77% and 58.6%
- viability, T/C (compound 3.16 µM): 37.4% and 21.2%
- viability, T/C (compound 10 µM): 3.33% and 4.05%
- IC50 (curve of compound): 2200 nM and 1310 nM
